# Assay results from ChEMBL document CHEMBL1201862, “PubChem BioAssay data set” (2004).
# Calls of active or inactive are those of the source. For most assays here, no stated cut-off is given here; in the data, actives have a measured EC50 and inactives only a lower limit.
# Tests used:
# [1] = Luminescence Cell-Based Dose Retest to Confirm Inhibitors of Cancer Stem Cells. [Related pubchem assays (depositor defined):AID2717, AID2721]; assay type: functional; details: Homo sapiens
# Cytochrome P450 2D6 = Cytochrome P450 2D6 (Homo sapiens, UniProt P10635);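 further: CYP2D6 member of a cytochrome P450 panel assay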
# [2] = luciferase reporter signal suppression in cells – H4 neuroglioma cells, luminescence, dose response (AID 1990); assay type: functional, cell-based
# [3] = Luminescence Cell-Based Dose Response HTS to Identify Inhibitors of 5'UTR Stem-Loop Driven Prion Protein mRNA Translation in H4 Neuroglioblastoma Cells. [Related pubchem assays: 1827 (Project Summary), 1813 (Primary HTS)]; assay type: functional
# [4] = target: T1, Heat shock factor protein 1 (Mus musculus, UniProt P38532); experiment: decrease of HSF1-responsive luciferase luminescence – cell-based, NIH3T3, dose retest, confirmation (AID 2382); assay type: functional;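 further: NIH3T3 fibroblasts with HSF1-driven luciferase reporter stressed by proteasome inhibitor MG132; luminescence from HSF1-driven luciferase expression after 8 hours of MG132 stress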
# T1 sequence (P38532 whole entry): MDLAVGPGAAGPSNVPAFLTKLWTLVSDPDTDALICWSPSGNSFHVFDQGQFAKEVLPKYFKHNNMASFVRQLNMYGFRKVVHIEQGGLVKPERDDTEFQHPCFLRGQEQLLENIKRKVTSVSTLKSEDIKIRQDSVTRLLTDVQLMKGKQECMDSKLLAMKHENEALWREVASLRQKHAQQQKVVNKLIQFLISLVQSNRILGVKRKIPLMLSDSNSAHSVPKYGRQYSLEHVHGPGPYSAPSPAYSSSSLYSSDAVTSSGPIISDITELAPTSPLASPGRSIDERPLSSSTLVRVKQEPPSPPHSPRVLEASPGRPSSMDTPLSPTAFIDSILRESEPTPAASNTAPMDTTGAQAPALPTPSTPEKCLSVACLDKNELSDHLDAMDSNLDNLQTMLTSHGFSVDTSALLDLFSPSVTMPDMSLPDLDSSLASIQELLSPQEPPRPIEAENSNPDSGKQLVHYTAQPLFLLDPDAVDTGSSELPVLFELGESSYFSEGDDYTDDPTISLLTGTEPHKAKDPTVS
# [5] = alpha-synuclein stem-loop luciferase translation blockers – H4 neuroglioma cells, luminescence, confirmation (AID 1988); assay type: functional, cell-based
# [6] = target: T2, Corticotropin-releasing factor receptor 2/Corticotropin-releasing factor-binding protein (Homo sapiens, UniProt P24387+Q13324); experiment: Dose Response confirmation of uHTS hits for small molecule antagonists of the CRF-binding protein and CRF-R2 receptor complex.; assay type: functional; details: read-out: IC50_Mean
# T2 sequence (Q13324 whole entry): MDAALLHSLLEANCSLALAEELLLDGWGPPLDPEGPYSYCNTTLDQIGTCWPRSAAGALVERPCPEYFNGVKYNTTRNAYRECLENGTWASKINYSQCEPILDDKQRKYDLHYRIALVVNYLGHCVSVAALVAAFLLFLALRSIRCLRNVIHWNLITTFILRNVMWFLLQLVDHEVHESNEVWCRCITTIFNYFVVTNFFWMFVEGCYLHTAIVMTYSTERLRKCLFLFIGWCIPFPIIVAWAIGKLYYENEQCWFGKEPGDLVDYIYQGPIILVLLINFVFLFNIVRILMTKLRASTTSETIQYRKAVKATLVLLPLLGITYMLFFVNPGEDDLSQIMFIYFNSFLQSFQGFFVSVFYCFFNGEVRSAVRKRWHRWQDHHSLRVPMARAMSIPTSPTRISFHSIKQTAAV
# T2 sequence (P24387 whole entry): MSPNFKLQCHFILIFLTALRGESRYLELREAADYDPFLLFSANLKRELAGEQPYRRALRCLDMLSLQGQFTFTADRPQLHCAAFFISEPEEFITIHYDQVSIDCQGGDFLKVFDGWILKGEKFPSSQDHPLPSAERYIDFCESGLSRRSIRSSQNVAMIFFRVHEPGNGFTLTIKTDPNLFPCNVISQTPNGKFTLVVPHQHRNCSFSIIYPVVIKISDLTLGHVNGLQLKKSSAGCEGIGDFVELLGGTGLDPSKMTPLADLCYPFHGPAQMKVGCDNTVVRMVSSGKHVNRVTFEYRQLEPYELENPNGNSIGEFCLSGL
# [7] = target: T2, Corticotropin-releasing factor receptor 2/Corticotropin-releasing factor-binding protein; experiment: activators of CRF receptor 2 with binding protein – uHTS hits, confirmation (AID 602473); assay type: functional; details: read-out: EC50_Mean
# [8] = viability of uninfected HEp-2 cells – cell-based, HTS, cytotoxicity control for RSV inhibitor project, dose response (AID 2410); assay type: functional; details: human respiratory syncytial virus
# [9] = target: T3, Replicative DNA helicase DnaB (Mycobacterium tuberculosis, UniProt P9WMR3); experiment: DnaB intein splicing inhibitors, dose response, biochemical, cell-free fluorescence (AID 449749); assay type: functional
# T3 sequence (P9WMR3 whole entry): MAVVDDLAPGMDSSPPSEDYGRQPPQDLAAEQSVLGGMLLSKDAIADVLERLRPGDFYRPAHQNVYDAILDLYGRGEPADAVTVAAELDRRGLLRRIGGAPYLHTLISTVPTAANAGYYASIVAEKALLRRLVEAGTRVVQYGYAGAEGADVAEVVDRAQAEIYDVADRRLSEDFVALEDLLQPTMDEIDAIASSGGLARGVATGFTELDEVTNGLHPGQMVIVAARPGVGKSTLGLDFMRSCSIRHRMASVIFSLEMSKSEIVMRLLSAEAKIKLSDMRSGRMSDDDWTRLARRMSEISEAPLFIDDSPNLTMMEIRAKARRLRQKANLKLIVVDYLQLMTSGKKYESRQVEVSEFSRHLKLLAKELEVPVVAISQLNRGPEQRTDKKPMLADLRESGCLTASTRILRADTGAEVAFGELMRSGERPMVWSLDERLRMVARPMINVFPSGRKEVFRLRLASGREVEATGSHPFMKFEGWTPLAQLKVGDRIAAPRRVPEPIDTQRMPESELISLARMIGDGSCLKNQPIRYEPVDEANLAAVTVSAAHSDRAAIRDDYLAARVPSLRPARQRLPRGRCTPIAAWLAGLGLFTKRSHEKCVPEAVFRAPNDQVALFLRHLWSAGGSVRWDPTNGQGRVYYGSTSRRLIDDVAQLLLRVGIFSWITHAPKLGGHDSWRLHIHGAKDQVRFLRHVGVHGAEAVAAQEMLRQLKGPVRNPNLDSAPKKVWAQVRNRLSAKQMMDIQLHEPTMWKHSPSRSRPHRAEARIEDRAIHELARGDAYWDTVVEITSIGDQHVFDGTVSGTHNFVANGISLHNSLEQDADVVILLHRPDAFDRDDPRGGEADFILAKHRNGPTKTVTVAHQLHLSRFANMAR
# Protein RecA = target: T4, Protein RecA (Mycobacterium tuberculosis, UniProt P9WHJ3); experiment: Fluorescence Cell-Free Homogeneous Dose Retest to Identify Inhibitors of RecA-Intein Splicing Activity. [Related pubchem assays (depositor defined):AID2097, AID2223, AID489010, AID492950]; assay type: functional
# T4 sequence (P9WHJ3 whole entry): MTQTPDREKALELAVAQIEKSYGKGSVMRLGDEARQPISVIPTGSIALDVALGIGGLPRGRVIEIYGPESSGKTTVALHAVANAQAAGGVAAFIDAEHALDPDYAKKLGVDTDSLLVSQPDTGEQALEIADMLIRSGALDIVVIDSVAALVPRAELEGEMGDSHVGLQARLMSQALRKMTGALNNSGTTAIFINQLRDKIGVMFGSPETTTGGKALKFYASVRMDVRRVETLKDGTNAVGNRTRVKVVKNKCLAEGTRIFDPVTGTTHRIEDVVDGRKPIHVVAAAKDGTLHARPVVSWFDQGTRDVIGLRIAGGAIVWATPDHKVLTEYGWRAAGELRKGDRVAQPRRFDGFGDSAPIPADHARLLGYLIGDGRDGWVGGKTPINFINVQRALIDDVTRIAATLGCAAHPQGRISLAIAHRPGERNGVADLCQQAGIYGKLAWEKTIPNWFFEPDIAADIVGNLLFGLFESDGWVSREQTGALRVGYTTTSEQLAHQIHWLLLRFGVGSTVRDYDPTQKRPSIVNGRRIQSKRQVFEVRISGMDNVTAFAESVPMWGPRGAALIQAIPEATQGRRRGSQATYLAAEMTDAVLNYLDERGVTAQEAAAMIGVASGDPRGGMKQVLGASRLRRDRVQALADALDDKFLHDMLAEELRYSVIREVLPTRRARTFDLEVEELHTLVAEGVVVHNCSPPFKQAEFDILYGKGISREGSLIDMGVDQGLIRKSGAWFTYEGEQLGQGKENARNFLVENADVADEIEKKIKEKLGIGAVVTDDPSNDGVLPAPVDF
# Cytochrome P450 2C9 = Cytochrome P450 2C9 (Homo sapiens, UniProt P11712)
# [10] = Trypanosoma cruzi growth suppression in host cells – NIH3T3 host cells, beta-gal luminescence, confirmation (AID 2044); assay type: functional, cell-based;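 further: intracellular parasites grown in NIH/3T3 mouse fibroblasts as host cells; luminescent beta-galactosidase reporter signal from transgenic T. cruzi replicating inside host cells; inhibitors lower the luminescence signal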
# [11] = NIH3T3 cell viability loss – ATP luminescence, mouse fibroblasts, counter-screen, dose response (AID 2010); assay type: functional, cell-based;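 further: cells exposed to compound for about 90 hours before reading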
# Sequence of Cytochrome P450 2D6 (P10635 whole entry): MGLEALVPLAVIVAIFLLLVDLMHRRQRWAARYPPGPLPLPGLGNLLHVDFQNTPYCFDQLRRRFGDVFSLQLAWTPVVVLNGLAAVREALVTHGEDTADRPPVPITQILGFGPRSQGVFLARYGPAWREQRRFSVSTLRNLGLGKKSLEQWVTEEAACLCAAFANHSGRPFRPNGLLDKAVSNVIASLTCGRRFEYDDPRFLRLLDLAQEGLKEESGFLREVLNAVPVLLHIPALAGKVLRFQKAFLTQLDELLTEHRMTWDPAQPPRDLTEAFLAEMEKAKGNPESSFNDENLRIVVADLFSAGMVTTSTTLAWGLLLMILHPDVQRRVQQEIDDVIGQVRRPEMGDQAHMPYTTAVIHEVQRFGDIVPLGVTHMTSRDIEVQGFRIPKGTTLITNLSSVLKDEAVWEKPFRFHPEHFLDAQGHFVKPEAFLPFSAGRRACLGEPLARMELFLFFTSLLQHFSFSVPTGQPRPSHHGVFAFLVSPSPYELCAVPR
# Sequence of Cytochrome P450 2C9 (P11712 whole entry): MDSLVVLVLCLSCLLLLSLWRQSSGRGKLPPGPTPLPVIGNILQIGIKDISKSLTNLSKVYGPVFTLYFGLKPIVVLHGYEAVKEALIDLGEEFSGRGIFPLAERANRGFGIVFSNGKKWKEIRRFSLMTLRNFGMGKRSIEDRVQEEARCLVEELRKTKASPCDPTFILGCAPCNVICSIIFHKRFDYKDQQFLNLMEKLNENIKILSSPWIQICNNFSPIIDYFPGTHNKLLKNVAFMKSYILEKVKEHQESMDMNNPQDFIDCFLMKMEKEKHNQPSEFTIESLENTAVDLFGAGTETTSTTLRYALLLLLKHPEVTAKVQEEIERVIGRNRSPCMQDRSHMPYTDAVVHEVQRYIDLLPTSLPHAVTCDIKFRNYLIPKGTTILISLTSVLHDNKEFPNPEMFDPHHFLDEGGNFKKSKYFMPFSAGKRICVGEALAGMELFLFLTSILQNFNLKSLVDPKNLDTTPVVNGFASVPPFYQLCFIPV
smiles,measurement,setting,value
Nc1ccc(CCN2CCN(c3cccc(C(F)(F)F)c3)CC2)cc1,AC50,[1],1.35 µM (active)
same,AC50,Cytochrome P450 2D6,12.6 µM (inconclusive)
COCCN(Cc1ccccc1)C(S)=Nc1ccc(Cl)cc1,EC50,[2],> 120 µM (not active)
same,EC50,[3],> 120 µM (not active)
same,EC50,[4],30.3 µM (active)
same,EC50,[5],16.8 µM (active)
CCOc1ccccc1NC(=O)C1CCCN1S(=O)(=O)c1ccccc1C(F)(F)F (stereo unspecified),IC50,[6],> 47.1 µM (inactive)
same,EC50,[7],> 53 µM (inactive)
CCOc1ccc(S(=O)(=O)N2CCC(C(=O)NCC(=O)Nc3cccc(Cl)c3C)CC2)cc1,CC50,[8],49.1 µM (active)
CCC(=O)c1cc(F)c(N2CCN(C(=O)Cc3ccccc3)CC2)cc1C,CC50,[8],17 µM (active)
COc1cccc(Nc2ncc(C#N)c(N)n2)c1,EC50,[2],16.4 µM (active)
same,EC50,[3],14.2 µM (active)
same,EC50,[5],14.5 µM (active)
CCc1ccc(CNn2cnnc2SCC(=O)NC(C)(C)C)cc1,EC50,[2],> 120 µM (not active)
same,EC50,[3],> 120 µM (not active)
same,EC50,[5],> 120 µM (not active)
CC(C)(C)c1cc(C(=O)O)nn1-c1ccccc1,IC50,[6],> 47.1 µM (inactive)
same,EC50,[7],> 53 µM (inactive)
COc1ccc(OCCCC(=O)Nc2cccnc2)cc1,IC50,[6],> 47.1 µM (inactive)
same,EC50,[7],> 53 µM (inactive)
c1ccc(Sc2ncnc3ccccc23)cc1,AC50,[9],21.9 µM (active)
same,EC50,Protein RecA,11.2 µM (active)
O=C(COc1ncnc2sccc12)N1CCN(C(=O)c2ccco2)CC1,EC50,[2],> 120 µM (not active)
same,EC50,[3],> 120 µM (not active)
same,EC50,[5],> 120 µM (not active)
CN(C)c1ccc(-c2nc3n(n2)C(c2cccnc2)C2=C(O)CC(C)(C)CC2=N3)cc1 (stereo unspecified),EC50,[4],> 195 µM (not active)
same,AC50,Cytochrome P450 2D6,17.8 µM (inconclusive)
same,AC50,Cytochrome P450 2C9,28.2 µM (inconclusive)
Cc1ccc(NC(=O)CSc2nc3ccccc3c(=O)n2CCCC(=O)NCCCN2CCOCC2)cc1,IC50,[6],> 47.1 µM (inactive)
same,EC50,[7],> 53 µM (inactive)
CCC(NN1CCCCC1)=C1C(=O)NC(=O)NC1=O,EC50,[2],11.9 µM (active)
same,EC50,[3],> 120 µM (not active)
same,EC50,[5],10.2 µM (active)
COc1ccc(NC(=O)N2CCN(c3nc(-c4cccc(OC)c4)cs3)CC2)cc1,CC50,[8],9.75 µM (active)
CC(=O)N(C(C)=O)c1ncnc2c1c(-c1ccc(Cl)cc1)nn2C(C)(C)C,EC50,[2],13.1 µM (active)
same,EC50,[3],20.1 µM (active)
same,EC50,[5],25.1 µM (active)
same,EC50,[10],0.512 µM (active)
same,EC50,[11],4.21 µM (active)
Cc1nn(Cc2ccccc2Cl)c(C)c1NC(=O)c1nc2ncccn2n1,IC50,[6],> 47.1 µM (inactive)
same,EC50,[7],> 53 µM (inactive)
CCc1cccc(NC(=O)c2cccc3c2C(=O)N(C2CCCCC2)C3)c1,CC50,[8],38.1 µM (active)
COC(=O)Nc1nn(-c2ccc(OC)cc2)c(=O)c(C#N)c1C,AC50,[9],25.9 µM (active)
same,EC50,Protein RecA,6.31 µM (active)
COCc1cc(O)n2nc(-c3ccccc3)cc2n1,IC50,[6],> 47.1 µM (inactive)
same,EC50,[7],> 53 µM (inactive)
Cc1ccc(C(=O)COc2cc(O)c3c(=O)cc(-c4ccccc4)oc3c2)cc1,IC50,[6],> 47.1 µM (inactive)
same,EC50,[7],> 53 µM (inactive)
CCOc1ccccc1N(C)C(=O)Cn1ncc2c3ccccc3nc-2c1O,IC50,[6],> 47.1 µM (inactive)
same,EC50,[7],> 53 µM (inactive)
CCOC(=O)c1ccc(N2CN(CC)CN=C2S)cc1,EC50,[2],> 120 µM (not active)
same,EC50,[3],> 120 µM (not active)
same,EC50,[5],> 120 µM (not active)
CCOC(=O)c1[nH]c2ccccc2c1NC(=O)Nc1ccc(OC)cc1,IC50,[6],> 47.1 µM (inactive)
same,EC50,[7],> 53 µM (inactive)
CC(C)C(NC(=O)c1ccco1)C(=O)NC1CCCCCC1 (stereo unspecified),IC50,[6],> 47.1 µM (inactive)
same,EC50,[7],> 53 µM (inactive)
O=C(COC(=O)c1ccncc1)Nc1cc(Cl)ccc1Cl,IC50,[6],> 47.1 µM (inactive)
same,EC50,[7],> 53 µM (inactive)
C/C(CC(=O)NCc1ccco1)=N\NC(=O)c1ccc([N+](=O)[O-])cc1Cl,AC50,[9],10.2 µM (active)
same,EC50,Protein RecA,5.56 µM (active)
Nc1ccc(C(=O)N/N=C/c2cn(Cc3ccc(F)cc3)c3ccccc23)cc1,EC50,[2],10.1 µM (active)
same,EC50,[3],17.7 µM (active)
same,EC50,[5],7.7 µM (active)
COC(=O)N/N=C\c1ccc(OC(=O)c2ccco2)cc1,AC50,[9],44.6 µM (active)
same,EC50,Protein RecA,16.7 µM (active)
